Measured values as given in BindingDB's records for doi:10.1016/j.bmcl.2004.11.051 (Merck Frosst Centre For Therapeutic Research, 2005).

What was measured:
[1] = target: T1, Prostaglandin E2 receptor EP3 subtype (Homo sapiens, UniProt P43115); experiment: Binding affinity for human prostanoid EP3 receptor
T1 sequence (P43115 whole entry): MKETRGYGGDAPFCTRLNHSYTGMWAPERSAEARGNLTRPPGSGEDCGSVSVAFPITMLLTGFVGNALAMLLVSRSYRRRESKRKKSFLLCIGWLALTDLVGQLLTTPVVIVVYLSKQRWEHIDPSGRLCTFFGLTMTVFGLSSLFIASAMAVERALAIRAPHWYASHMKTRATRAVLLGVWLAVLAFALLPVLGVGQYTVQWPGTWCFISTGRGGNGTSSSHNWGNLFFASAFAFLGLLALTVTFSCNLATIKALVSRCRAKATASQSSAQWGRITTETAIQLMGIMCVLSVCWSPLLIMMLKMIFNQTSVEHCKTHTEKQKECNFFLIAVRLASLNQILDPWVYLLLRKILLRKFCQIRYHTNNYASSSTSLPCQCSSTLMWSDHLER

[2] = target: Prostaglandin E2 receptor EP2 subtype (Homo sapiens, UniProt P43116); experiment: Binding affinity for human prostanoid EP2 receptor
[3] = target: Prostaglandin E2 receptor EP4 subtype (Homo sapiens, UniProt P35408); experiment: Binding affinity for human prostanoid EP4 receptor
Sequence of Prostaglandin E2 receptor EP4 subtype (P35408 whole entry): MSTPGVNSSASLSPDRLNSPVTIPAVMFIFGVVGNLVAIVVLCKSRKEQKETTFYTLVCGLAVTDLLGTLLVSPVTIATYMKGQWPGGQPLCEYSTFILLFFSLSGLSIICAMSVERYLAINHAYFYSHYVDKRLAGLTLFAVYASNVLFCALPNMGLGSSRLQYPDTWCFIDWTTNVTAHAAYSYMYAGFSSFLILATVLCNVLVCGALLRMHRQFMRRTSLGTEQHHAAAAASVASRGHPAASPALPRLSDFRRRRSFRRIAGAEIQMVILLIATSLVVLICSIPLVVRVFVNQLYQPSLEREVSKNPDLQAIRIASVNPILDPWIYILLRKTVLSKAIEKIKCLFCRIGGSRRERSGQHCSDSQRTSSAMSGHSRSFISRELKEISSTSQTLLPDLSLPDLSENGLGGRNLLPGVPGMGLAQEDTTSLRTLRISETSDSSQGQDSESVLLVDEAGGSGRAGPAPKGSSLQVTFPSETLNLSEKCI

Sequence of Prostaglandin E2 receptor EP2 subtype (P43116 whole entry): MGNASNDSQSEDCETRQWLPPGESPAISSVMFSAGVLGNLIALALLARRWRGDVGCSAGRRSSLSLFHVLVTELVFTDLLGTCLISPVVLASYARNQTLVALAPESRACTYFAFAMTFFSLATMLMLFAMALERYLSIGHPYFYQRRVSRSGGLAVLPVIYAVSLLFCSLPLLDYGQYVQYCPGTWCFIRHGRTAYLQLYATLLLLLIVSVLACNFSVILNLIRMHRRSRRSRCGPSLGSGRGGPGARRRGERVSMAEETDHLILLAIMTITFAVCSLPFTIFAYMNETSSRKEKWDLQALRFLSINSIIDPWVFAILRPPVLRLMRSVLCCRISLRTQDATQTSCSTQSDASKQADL

Ki [1]: 0.009 µM | Ki [2]: 0.86 µM | Ki [3]: 2 µM
Structure (SMILES): Cc1cccc(C/C=C/c2ccccc2/C=C/C(=O)O)c1OCc1ccccc1
